Tested on: dopaminergic neurons
Experiment: MPTP mouse model, dopaminergic neuronal damage (TH immunoblotting, TH immunohistochemistry)
Assay type: in vivo
Conditions: peptide 6 μmol/kg i.p. twice a day for 12 days
Method: C57BL/6 mice were i.p. injected with 30 mg/kg parkinsonian toxin MPTP (or saline as control), once per day for 5 consecutive days, to induce dopaminergic neuron damage. The effects of MPTP administration on mouse rotarod performance and damage to dopaminergic neurons were then analyzed 1 week after the last injection of MPTP. To determine the effect of α-synuclein knockdown in protecting dopaminergic neurons against MPTP, the Tat-βsyn-degron peptide or its control Tat-βsyn (6 μmol/kg; i.p.) was used in some animals twice a day for 12 days, beginning the first day of MPTP injection. […] The striatum is a region that receives dopaminergic neuronal projections from the substantia nigra and is also deeply affected in PD. Consistent with the specific neurotoxic effects of MPTP on dopaminergic neurons, in mice receiving MPTP injection alone there was a significant loss of protein TH in both dopaminergic neurons in the substantia nigra-containing ventral midbrain (FIGS. 6a and 6c) and dopaminergic neuronal terminals in the striatum (FIGS. 6d and 6f). […] As expected, the specific knockdown of α-synuclein by Tat-βsyn-degron protected against MPTP-induced dopaminergic neuronal injury (FIGS. 6c and 6f).
C57BL/6 mice (20-25 g) received intraperitoneal (i.p.) injection of 30 mg/kg parkinsonian toxin MPTP hydrochloride once a day for 5 days to induce dopaminergic neuron death in the substantia nigra, while the control mice received equal volumes of saline injection. 6 μmol/kg Tat-βsyn-degron peptide or control Tat-βsyn peptide was i.p. injected into the MPTP-treated mice every 12 hrs from the first day of MPTP injection until 7 days after the last injection of MPTP. All groups of mice then underwent a rotarod test before they were sacrificed.
Brain tissues or cultured cells were lysed on ice in the lysis buffer and then the solution was centrifuged at 14,000 rpm for 10 min at 4° C. Next, the supernatant was collected and protein concentrations were determined using a BCA protein assay kit (Thermo Scientific, 23227). Equal amount of protein samples was mixed with 4× sample buffer, boiled at 100° C. for 5 min, and separated on 10% sodium dodecyl sulphate-polyacrylamide gel electrophoresis (SDS-PAGE). Proteins were then transferred to Immobilon-PTM polyvinylidene fluoride (PVDF) membranes (Bio-Rad, 162-0177). The membranes were blocked with 5% non-fat milk in Tris-buffered saline containing 0.1% Tween-20 (TBST) for 1 hr at room temperature, and then incubated overnight at 4° C. with primary antibody. After washing 3×5 min in TBST, membranes were incubated with horseradish peroxidase-conjugated secondary antibody for 1 hr at room temperature. After another three washes with TBST, protein was visualized in the Bio-Rad Imager using ECL western blotting substrate (Pierce, 32016). The band density of each protein was quantified by the Bio-Rad Quantity One software and the relative optical density was analyzed relative to the loading control β-actin on the same membrane.
C57BL/6 mice were anesthetized with 1.5 g/kg urethane (Sigma, U2500) and then perfused with 0.9% saline and 4% paraformaldehyde. Brains were removed and fixed in 4% paraformaldehyde for 24 hrs before being transferred to 30% sucrose/PBS solution for cryoprotection. The brains were then sectioned into 30 μm slices using a Leica cryostat. After blocking and permeabilization using a PBS solution containing 1% BSA and 0.2% Triton X-100 for 30 min at room temperature, the brain slices were incubated with anti-TH antibody (1:800 dilution) for 3 days at 4° C. Finally, the TH-positive neurons in the substantia nigra and TH-positive neuronal terminals in the striatum were stained using the anti-mouse Ig HRP detection kit (BD Transduction Laboratories, 551011) according to manufacturer's instruction, and visualized under Zeiss Axio Observer D1 microscope. […]

[1] = MPTP 30 mg/kg x5 days, immunoblot

YGRKKRRQRRRRTKSGVYLVGRRRG (The sequence is synthesized (YGRKKRRQRRRRTKSGVYLVGRRRG)) [Tat-βsyn-degron]
TH protein level in striatum after MPTP [1]: protected against the MPTP-induced decrease in the level of TH protein
TH protein level in ventral midbrain after MPTP [1]: protected against the MPTP-induced decrease in the level of TH protein
MPTP-induced dopaminergic neuronal damage (overall, FIG. 6 and FIG. 7a-d): largely protected
density of dopaminergic neuronal terminals in the striatum after MPTP (TH densitometry): protected against MPTP-induced decrease
number of dopaminergic neurons in the substantia nigra pars compacta after MPTP (blinded TH neuron counting): protected against MPTP-induced decrease in the number of dopaminergic neurons
